Measured values from US5843904A, “Inhibitors of interleukin-1βconverting enzyme” (Vertex Pharmaceuticals, Inc., priority 1995, dated 1998).
Non-standard residues stand in square brackets, D forms with d. Residues, ends and D or L forms follow the SMILES beside them. No end group written: not given here. *: point of attachment. 4Abz = Nc1ccc(C(=O)O)cc1; Nphe = O=C(O)CNCc1ccccc1; Bz = O=C(c1ccccc1)*; CH2Cl = ClC*

Tested on: primary cells or cell lines
Assay: not given
Details: inhibition of one or more ICE homologs; cited from earlier work

Row | Molecule | inhibition of apoptosis
1 | Tyr-Val-Ala-Asp-chloromethylketone (YVAD-CH2Cl) | inhibition of apoptosis

Target: T1, ICE (Homo sapiens, UniProt P29466)
T1 construct: The active enzyme exists as a tetramer of two p20 and two p10 subunits
T1 sequence (P29466 120-297 limits assumed): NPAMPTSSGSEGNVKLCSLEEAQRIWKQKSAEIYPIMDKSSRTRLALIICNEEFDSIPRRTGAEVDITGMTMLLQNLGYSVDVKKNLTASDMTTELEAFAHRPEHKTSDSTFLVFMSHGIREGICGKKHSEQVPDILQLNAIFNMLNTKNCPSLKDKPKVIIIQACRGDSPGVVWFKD
T1 sequence (P29466 317-404 limits assumed): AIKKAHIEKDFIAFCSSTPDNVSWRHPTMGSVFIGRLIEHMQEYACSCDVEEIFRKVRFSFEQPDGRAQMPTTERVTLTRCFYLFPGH
Assay: Inhibition of ICE: enzyme assay with UV-visible substrate (Succinyl-Tyr-Val-Ala-Asp-pNitroanilide)
Type: biochemical
Details: UV-visible substrate assay of Example 1; pH 8.1, 37° C., 80 μM substrate
Excerpt: The term "Ki " refers to a numerical measure of the effectiveness of a compound in inhibiting the activity of a target enzyme such as ICE. Lower values of Ki reflect higher effectiveness. The Ki value is a derived by fitting experimentally determined rate data to standard enzyme kinetic equations (see I. H. Segel, Enzyme Kinetics, Wiley-Interscience, 1975).
1. Enzyme assay with UV-visible substrate
This assay is run using an Succinyl-Tyr-Val-Ala-Asp-pNitroanilide substrate. Synthesis of analogous substrates is described by L. A. Reiter (Int. J. Peptide Protein Res. 43, 87-96 (1994)). The assay mixture contains:
65 μl buffer (10 mM Tris, 1 mM DTT, 0.1% CHAPS @pH 8.1)
10 μl ICE (50 nM final concentration to give a rate of ~1 mOD/min)
5 μl DMSO/Inhibitor mixture 20 μl 400 μM Substrate (80 μM final concentration)
100 μl total reaction volume
The visible ICE assay is run in a 96-well microtiter plate. Buffer, ICE and DMSO (if inhibitor is present) are added to the wells in the order listed. The components are left to incubate at room temperature for 15 minutes starting at the time that all components are present in all wells. The microtiter plate reader is set to incubate at 37° C. After the 15 minute incubation, substrate is added directly to the wells and the reaction is monitored by following the release of the chromophore (pNA) at 405-603 nm at 37° C. for 20 minutes. A linear fit of the data is performed and the rate is calculated in mOD/min. DMSO is only present during experiments involving inhibitors, buffer is used to make up the volume to 100 μl in the other experiments.
The following Ki values were determined for compounds 706, 710, 719, 720, 725-727, 729, 731, 733, 743, 745, and 747-757 using the assay described in Example 1.

Row | Ki [nM] | Molecule
2 | 7.5 | CC(C)[C@H](NC(=O)c1ccc(Cl)cc1)C(=O)N(CC(=O)N[C@@H](CC(=O)O)C(=O)c1ncc(-c2c(Cl)cccc2Cl)o1)C1Cc2ccccc2C1 [Compound 733]
3 | 170 | CC(C)[C@H](NC(=O)OCc1ccccc1)C(=O)N(CC(=O)N[C@H](C=O)CC(=O)O)C1Cc2ccccc2C1 [Compound 757, 3(S)-(2-((2(S)-(Benzyloxycarbonylamino-3-methylbutyryl)-indan-2-yl)amino)acetylamino)-4-oxobutyric Acid]
4 | 69 | CC(C)[C@H](NC(=O)c1ccccc1)C(=O)N(CC(=O)N[C@H](C=O)CC(=O)O)Cc1ccccc1 [Compound 706, 3(S)-(2-((2(S)-Benzoylamino-3-methylbutyryl)benzylamino)acetylamino)-4-oxo-butyric Acid] (Bz-Val-[Nphe]-Asp-aldehyde)
5 | 6 | CC(C)[C@H](NC(=O)c1nccc2ccccc12)C(=O)N(CC(=O)N[C@H](C=O)CC(=O)O)Cc1ccccc1 [Compound 748, 3(S)-(2(S)-(Benzyl-(2-((isoquinoline-1-carbonyl)amino)-3-methylbutyryl)amino)acetylamino)-4-oxo-butyric Acid]
6 | 60 | CC(=O)Nc1cccc(CN(CC(=O)N[C@H](C=O)CC(=O)O)C(=O)[C@@H](NC(=O)c2ccccc2)C(C)C)c1 [Compound 743, 3(S)-(2-((3-Acetylaminobenzyl)-(2(S)-benzoylamino-3-methylbutyryl)amino)acetylamino)-4-oxo-butyric Acid]
7 | 390 | CC(C)[C@H](NC(=O)c1nccc2ccccc12)C(=O)N(CC(=O)N[C@@H](C=O)CCC(=O)O)Cc1ccccc1 [Compound 755, 4(R)-(2(S)-(Benzyl-(2-((isoquinoline-1-carbonyl)amino)-3-methylbutyryl)amino)acetylamino)-5-oxopentanoic Acid]
8 | 7 | CC(C)[C@H](NC(=O)c1cccc2ccccc12)C(=O)N(CC(=O)N[C@H](C=O)CC(=O)O)Cc1ccccc1 [Compound 749, 3(S)-(2(S)-(Benzyl-(2-((napthalene-1-carbonyl)amino)-3-methylbutyryl)amino)acetylamino)-4-oxo-butyric Acid]
9 | 15 | CC(C)[C@H](NC(=O)c1ccccc1)C(=O)N(CC(=O)N[C@@H](CC(=O)O)C(=O)c1nc2cc(F)cc(F)c2o1)C1Cc2ccccc2C1 [Compound 726]
10 | 33 | CC(C)[C@H](NC(=O)c1ccccc1)C(=O)N(CC(=O)N[C@@H](CC(=O)O)C(=O)c1nc2cc(Cl)cc(Cl)c2o1)Cc1cccnc1 [Compound 720]
11 | 20 | CC(C)[C@H](NC(=O)c1ccccc1)C(=O)N(CC(=O)N[C@@H](CC(=O)O)C(=O)c1nc2cc(F)cc(Cl)c2o1)Cc1ccccc1 [Compound 719]
12 | 24 | CC(C)(C)[C@H](NC(=O)c1nccc2ccccc12)C(=O)N(CC(=O)N[C@H](C=O)CC(=O)O)Cc1ccccc1 [Compound 747, 3(S)-(2(S)-(Benzyl-(2-((isoquinoline-1-carbonyl)amino)-3,3-dimethylbutyryl)amino)acetylamino)-4-oxo-butyric Acid]
13 | 53 | CC(C)[C@H](NC(=O)C(=O)c1ccccc1)C(=O)N(CC(=O)N[C@H](C=O)CC(=O)O)Cc1ccccc1 [Compound 753, 3(S)-(2(S)-(Benzyl(3-methyl-2-(2-oxo-2-phenylacetylamino)butyryl)amino)acetylamino)-4-oxo-butyric Acid]
14 | 71 | CC(=O)Nc1ccc(C(=O)N[C@H](C(=O)N(CC(=O)N[C@H](C=O)CC(=O)O)Cc2ccccc2)C(C)C)cc1 [Compound 751, 3(S)-(2-((2(S)-(4-Acetylaminobenzoyl)amino-3-methylbutyryl)benzylamino)acetylamino)-4-oxo-butyric Acid] (Ac-[4Abz]V[Nphe]D-aldehyde)
15 | 90 | CC(C)[C@H](NC(=O)c1ccc(Cl)cc1)C(=O)N(CC(=O)N[C@H](C=O)CC(=O)O)Cc1ccccc1 [Compound 750, 3(5)-(2-((2(S)-(4-Chlorobenzoyl)amino-3-methylbutyryl)benzylamino)acetylamino)-4-oxo-butyric Acid]
16 | 62 | COc1cc(C(=O)C(=O)N[C@H](C(=O)N(CC(=O)N[C@H](C=O)CC(=O)O)Cc2ccccc2)C(C)C)cc(OC)c1OC [Compound 752]
17 | 2500 | CC(C)[C@H](NC(=O)c1ccccc1)C(=O)N(CC(=O)N[C@@H](C=O)CCC(=O)O)Cc1ccccc1 [Compound 754, 4(R)-(2(S)-((2-Benzoylamino-3-methylbutyryl)benzylamino)acetylamino)-5-oxopentanoic Acid] (Bz-Val-[Nphe]-[dE]-aldehyde)
18 | 45 | CC(C)[C@H](NC(=O)c1ccccc1)C(=O)N(CC(=O)N[C@H](C=O)CC(=O)O)Cc1cccc(NS(C)(=O)=O)c1 [Compound 745]
